B1: wild type: wild type DcpS (scavenger decapping enzyme) used to complement DcpS knockdown cells (protein, UniProt Q96C86 2-337, looked up)
m7GpppX diphosphatase: ADAAPQLGKRKRELDVEEAHAASTEEKEAGVGNGTCAPVRLPFSGFRLQKVLRESARDKIIFLHGKVNEASGDGDGEDAVVILEKTPFQVEQVAQLLTGSPELQLQFSNDIYSTYHLFPPRQLNDVKTTVVYPATEKHLQKYLRQDLRLIRETGDDYRNITLPHLESQSLSIQWVYNILDKKAEADRIVFENPDPSDGFVLIPDLKWNQQQLDDLYLIAICHRRGIRSLRDLTPEHLPLLRNILHQGQEAILQRYRMKGDHLRVYLHYLPSYYHLHVHFTALGFEAPGSGVERAHLLAEVIENLECDPRHYQQRTLTFALRADDPLLKLLQEAQQS

Legend:
Type in all cases: cell-based
[1] = system: endogenous DcpS exon 4 splice site; experiment: Antisense splice switching of endogenous DcpS, splicing patterns by RT-PCR; conditions: 293T cells
Experimental: FIG. 6. Splice switching of endogenous DcpS intron 4 to the DcpS^In15 alternative site. Vivo-morpholino antisense oligonucleotide (red line) was added to GM03813 cells and DcpS splicing tested. Schematic on lower right depicts the splicing pattern resulting with the indicated concentration of vivo-morpholino and arrows denote the primers used. Endogenous splicing is inhibited and shifted to the alternative site 45nt downstream as well as exon 4 skipping. Bottom panel is a control of exon2-exon3 junction not affected by the oligonucleotide. An exemplary antisense molecule comprises 5′ TTCCAGCCAGAAA CCTTTACCTGCT 3′ (SEQ ID NO: 1). However, antisense oligonucleotides can be designed to hybridize to the any contiguous 20-25 mer present in the DcpS variant sequence shown in FIG. 6.
Shifting of the endogenous DcpS gene to express the DcpS^In15 variant can also be accomplished by antisense oligonucleotide splice switching technology. With this approach, an antisense oligonucleotide complementary to the endogenous splice site is used to block the endogenous site and shift the splicing pattern to the DcpS^In15 pattern in SMA patient cells. The objective is to alter the endogenous DcpS splicing in order to generate sufficient levels of DcpS^In15 thereby elevating SMN2 gene expression and increasing levels of full length SMN protein. 293T cells were treated with 5 μM antisense morpholino oligonucleotide containing a cell permeable guanidinium based dendramer delivery system (vivo-morpholino; GeneTools LLC) for 24 hours and splicing patterns determined by RT-PCR. […] Instead ˜50% of the splicing utilizes the DcpS^In15 splice site 45 nucleotides downstream analogous to that observed in the homozygous DcpS^In15 ID patient cells, and ˜50% results in both sites being blocked and skipping of exon 4 entirely. In the latter case (lower panel in FIG. 6), splicing bypasses exon 4 and goes from exon 3 to exon 5. […] The invention also encompasses optimized oligonucleotide sequences comprising altered nucleotide backbones, and small molecules that can shift splicing to further improve levels of DcpS^In15, thereby elevating SMN2 levels and providing a therapeutic intervention for SMA patients.

fl-SMN2 mRNA = fl-SMN2 mRNA in GM03813 SMA patient cells expressing DcpS variants; conditions: GM03813 cells knocked down for DcpS, stably expressing shRNA-resistant DcpS variant
Experimental: (§1) FIGS. 3A-3C. DcpS^In15 increases fl-SMN2 mRNA and SMN protein in GM03813 SMA patient cells. FIG. 3A. fl-SMN2 mRNA levels were tested in GM03813 cells knocked down for DcpS and stably expressing the indicated shRNA-resistant DcpS variants. […] (Average of three biological replicates) FIG. 3B. Western of SMN and DcpS proteins from cells used in A. (Average of two biological replicates). FIG. 3C. SMN protein levels increase in GM0813 cells expressing DcpS^In15 with a background of endogenous levels of DcpS protein.

SMN protein = experiment: Western of SMN protein in GM03813 SMA patient cells expressing DcpS variants; conditions: background of reduced endogenous DcpS
Experimental: as §1

| Molecule | splicing that utilizes the DcpS^In15 splice site 45 nucleotides downstream ([1]; 5 μM, 24 hours, RT-PCR) [%] | splicing with both sites blocked and skipping of exon 4 entirely ([1]; 5 μM, 24 hours, RT-PCR) [%] | utilization of the endogenous exon 4 splice site ([1]; 5 μM, 24 hours, RT-PCR) | level of DcpS^In15 mRNA ([1]; antisense oligonucleotide splice switching) | fl-SMN2 mRNA levels (fl-SMN2 mRNA) | SMN protein level (Western) (SMN protein) |
| --- | --- | --- | --- | --- | --- | --- |
| 5′ TTCCAGCCAGAAA CCTTTACCTGCT 3′ (antisense TTCCAGCCAGAAACCTTTACCTGCT; vivo-morpholino guanidinium dendrimer delivery moiety, chemistry not fully specified) [vivo-morpholino oligonucleotide, antisense morpholino oligonucleotide containing a cell permeable guanidinium based dendramer delivery system (vivo-morpholino; GeneTools LLC)] | ~50 | ~50 | completely inhibits | increased level | – | – |
| B1 | – | – | – | – | not observed | not observed |

From patent US20170355956A1, “COMPOSITIONS FOR INCREASING SURVIVAL OF MOTOR NEURON PROTEIN (SMN) LEVELS IN TARGET CELLS AND METHODS OF USE THEREOF FOR THE TREATMENT OF SPINAL MUSCULAR ATROPHY” (RUTGERS, THE STATE UNIVERSITY OF NEW JERSEY, priority 2014, published 2017)
